This passage reports IC50 results from patent publication US20240254129A1, “HETEROCYCLIC COMPOUNDS AND USES THEREOF” (Kumquat Biosciences Inc., priority 2021, published 2024).

Assay [1] has as its target GST-tagged K-Ras mutant / His-tagged hSOS1 (Homo sapiens, UniProt P01116). Description: HTRF assay, K-Ras mutant / SOS1 interaction. The note with it: read-out: IC50 against mutant Kras. The assay is classed as binding. An outline of the steps:
(§1)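 GST-tagged K-Ras (mutant or wildtype) with anti-GST-Eu donor was mixed with His-hSOS1 and anti-6His-XL665 acceptor in HEPES pH 7.4 buffer with NaCl, DTT, BSA and Igepal. After ≥10 min, HTRF was read (ex 337 nm, em 620/665 nm); 665/620 ratios gave IC50 from duplicate dilution series.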
For orientation: Time-resolved FRET reads energy transfer from a long-lived donor to a nearby acceptor.

Another assay concerns the target T1, wildtype Kras / hSOS1 (Homo sapiens, UniProt P01116).
T1 construct: made in house; host or cells: E. coli BL21 (DE3)
Description: HTRF assay, wildtype Kras / SOS1 interaction. The assay is classed as binding. The note with it: read-out: IC50 against wildtype Kras. An outline of the steps: as §1

The mark [2] stands for this setting: compound nos. 102-196, general methodology of example 5.
The mark [3] stands for this setting: compound nos. 201-213, general methodology of example 5.

Where two headings read alike, the source gives them in different places.

Chain of GST-tagged K-Ras mutant / His-tagged hSOS1 (P01116 whole entry G12D, form open): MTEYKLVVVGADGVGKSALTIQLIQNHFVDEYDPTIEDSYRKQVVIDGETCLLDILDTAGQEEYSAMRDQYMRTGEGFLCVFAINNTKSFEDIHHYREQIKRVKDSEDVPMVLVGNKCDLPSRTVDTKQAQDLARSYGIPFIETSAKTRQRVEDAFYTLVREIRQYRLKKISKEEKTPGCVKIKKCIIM
T1 sequence (P01116 1-188 isoform P01116-2): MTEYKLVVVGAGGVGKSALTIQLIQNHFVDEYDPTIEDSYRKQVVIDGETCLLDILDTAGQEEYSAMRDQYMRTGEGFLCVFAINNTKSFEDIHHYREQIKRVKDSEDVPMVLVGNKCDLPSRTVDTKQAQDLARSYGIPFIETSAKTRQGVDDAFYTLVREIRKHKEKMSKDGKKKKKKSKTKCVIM

The IC50 is the point on the concentration scale where inhibition reaches its midpoint. `N#Cc1c(N)sc2c(F)ccc(-c3c(Cl)cc4c(N5C[C@H]6CC[C@@H](C5)N6C5CCOCC5)nc(OC[C@@]56CCCN5C[C@H](F)C6)nc4c3F)c12` [Compound 679, 2-amino-4-(6-chloro-8-fluoro-2-(((2R,7aS)-2-fluorotetrahydro-1H-pyrrol-izin-7a(5H)-yl)methoxy)-4-((1R,5S)-8-(tetrahydro-2H-pyran-4-yl)-3,8-diaza-bicyclo[3.2.1]octan-3-yl)-quinazolin-7-yl)-7-fluoro-benzo[b]thiophene-3-carbonitrile]: the IC50 in assay [1] (compound nos. 401-703) was below 500 nM; on wildtype Kras / hSOS1 (compound nos. 401-703), above 500 nM.

Regarding `Nc1nc2c(-c3c(Cl)cc4c(N5C[C@H]6CC[C@@H](C5)[C@@H]6N)nc(OCC56CCCN5CCC6)nc4c3F)ccc(F)c2s1` [Compound 413, 4-(4-((1R,5S,8s)-8-amino-3-azabicyclo[3.2.1]octan-3-yl)-6-chloro-8-fluoro-2-((tetra-hydro-1H-pyrrolizin-7a(5H)-yl)methoxy)quinazolin-7-yl)-7-fluorobenzo[d]thiazol-2-amine], the half-maximal inhibitory concentration (IC50) (in assay [1] (compound nos. 401-703); on wildtype Kras / hSOS1 (compound nos. 401-703)) was below 500 nM throughout.

With `CS(=O)(=O)N1CCCN(c2nc(OC[C@@]34CCCN3C[C@H](F)C4)nc3c(F)c(-c4ccc(F)c5sc(N)nc45)c(Cl)cc23)CC1` [Compound 644, 4-(6-chloro-8-fluoro-2-(((2R,7aS)-2-fluorotetra-hydro-1H-pyrrolizin-7a(5H)-yl)methoxy)-4-(4-(methylsulfonyl)-1,4-diazepan-1-yl)quinazolin-7-yl)-7-fluorobenzo[d]thia-zol-2-amine], the IC50 in assay [1] (compound nos. 401-703) is below 500 nM; on wildtype Kras / hSOS1 (compound nos. 401-703), above 500 nM.

On to `CN1CCC[C@H]1COc1nc(N2CCNCC(C)(C)C2)c2cc(Cl)c(-c3cccc4sc(N)nc34)c(F)c2n1` [Compound 118, 4-(6-chloro-4-(6,6-dimethyl-1,4-diazepan-1-yl)-8-fluoro-2-(((S)-1-methylpyrrolidin-2-yl)methoxy)quinazolin-7-yl)benzo[d]thiazol-2-amine], for which the IC50 (in assay [1] (setting [2]); on wildtype Kras / hSOS1 (setting [2])) was above 500 nM throughout.

For the compound `Nc1nc2c(-c3c(Cl)cc4c(N5CC6CCC(C5)N6)nc(OCC5(CN6CC[C@@H](F)C6)CC5)nc4c3F)ccc(F)c2s1` [Compound 586, 4-(4-(3,8-diazabicyclo-[3.2.1]octan-3-yl)-6-chloro-8-fluoro-2-((1-(((R)-3-fluoropyrrolidin-1-yl)meth-yl)cyclopropyl)methoxy)-quinazolin-7-yl)-7-fluoro-benzo[d]thiazol-2-amine], the IC50 is below 500 nM in assay [1] (compound nos. 401-703) and above 500 nM at wildtype Kras / hSOS1 (compound nos. 401-703).

As for `N#C/C=C/c1cc2c(N3CC4CCC(C3)N4)nc(OC[C@@]34CCCN3C[C@H](F)C4)nc2c(F)c1-c1ccc(F)c2sc(N)nc12` [Compound 495, (E)-3-(7-(2-amino-7-fluoro-benzo[d]thiazol-4-yl)-4-(3,8-diazabicyclo[3.2.1]octan-3-yl)-8-fluoro-2-(((2R,7aS)-2-fluorotetrahydro-1H-pyrrol-izin-7a(5H)-yl)methoxy)-quinazolin-6-yl)acrylonitrile], the IC50 in assay [1] (compound nos. 401-703) is above 500 nM; at wildtype Kras / hSOS1 (compound nos. 401-703), below 500 nM.

For the compound `Nc1nc2c(-c3c(Cl)cc4c(N5CC6CNC(C6)C5)nc(OC[C@@]56CCCN5C[C@H](F)C6)nc4c3F)ccc(F)c2s1` (stereo partly drawn) [Compound 201, 4-(4-(3,6-diazabicyclo[3.2.1]octan-3-yl)-6-chloro-8-fluoro-2-(((2R,7aS)-2-fluorotetrahydro-1H-pyrrolizin-7a(5H)-yl)methoxy)quinazolin-7-yl)-7-fluorobenzo[d]thiazol-2-amine], the IC50 (in assay [1] (setting [3]); on wildtype Kras / hSOS1 (setting [3])) was below 1500 nM throughout.

In the case of `Oc1ccc2c(c1)N(c1ccc3c(N4CCCCCC4)nc(OCC45CCCN4CCC5)nc3c1F)CCC2` [Compound 584, 1-(4-(azepan-1-yl)-8-fluoro-2-((tetrahydro-1H-pyrrol-izin-7a(5H)-yl)methoxy)-quinazolin-7-yl)-1,2,3,4-tetrahydroquinolin-7-ol], the IC50 (in assay [1] (compound nos. 401-703); at wildtype Kras / hSOS1 (compound nos. 401-703)) was above 500 nM each time.

Take `Nc1nc2c(-c3c(Cl)cc4c(N5CC6CCC(C5)N6)nc(OCC5(CN6CCC(F)(F)C6)CC5)nc4c3F)ccc(F)c2s1` [Compound 411, 4-(4-(3,8-diazabicyclo-[3.2.1]octan-3-yl)-6-chloro-2-((1-((3,3-difluoropyrrol-idin-1-yl)methyl)cycloprop-yl)methoxy)-8-fluoroquin-azolin-7-yl)-7-fluorobenzo-[d]thiazol-2-amine]: the values for the IC50 (in assay [1] (compound nos. 401-703); on wildtype Kras / hSOS1 (compound nos. 401-703)) were above 500 nM and below 500 nM, respectively.

Take `Cc1ccnc(C(C)C)c1-n1c(=O)nc(N2CCNCC(F)(F)C2)c2cc(F)c(-c3cccc4sc(N)nc34)nc21` [Compound 111, 7-(2-aminobenzo[d]thiazol-4-yl)-4-(6,6-difluoro-1,4-diazepan-1-yl)-6-fluoro-1-(2-isopropyl-4-methylpyr-idin-3-yl)pyrido[2,3-d]pyr-imidin-2(1H)-one]: the IC50 (in assay [1] (setting [2]); at wildtype Kras / hSOS1 (setting [2])) was above 500 nM each time.

On to `Fc1c(Br)c(Cl)cc2c(N3CCNCC(F)(F)C3)nc(OCC34CCCN3CCC4)nc12` [Compound 599, 7-bromo-6-chloro-4-(6,6-difluoro-1,4-diazepan-1-yl)-8-fluoro-2-((tetrahydro-1H-pyrrolizin-7a(5H)-yl)meth-oxy)quinazoline], for which the IC50 (in assay [1] (compound nos. 401-703); on wildtype Kras / hSOS1 (compound nos. 401-703)) was above 500 nM in each case.

`Nc1nc2c(-c3c(Cl)cc4c(N5CC6CCC(C5)N6)nc(OCCCN5CCCC5)nc4c3F)ccc(F)c2s1` [Compound 457, 4-(4-(3,8-diazabicyclo-[3.2.1]octan-3-yl)-6-chloro-8-fluoro-2-(3-(pyrrolidin-1-yl)propoxy)quinazolin-7-yl)-7-fluorobenzo[d]thiazol-2-amine]: the IC50 in assay [1] (compound nos. 401-703) was above 500 nM; at wildtype Kras / hSOS1 (compound nos. 401-703), below 500 nM.

As for `CN1CCC[C@H]1COc1nc(N2CCNCC(F)(F)C2)c2cc(C#N)c(-c3cccc4sc(N)nc34)c(F)c2n1` [Compound 125, 7-(2-aminobenzo[d]thiazol-4-yl)-4-(6,6-difluoro-1,4-diazepan-1-yl)-8-fluoro-2-(((S)-1-methylpyrrolidin-2-yl)methoxy)quinazoline-6-carbonitrile], the half-inhibitory concentration (IC50) (in assay [1] (setting [2]); at wildtype Kras / hSOS1 (setting [2])) was above 500 nM in each case.

Regarding `Nc1nc2c(-c3c(Cl)cc4c(N5CCCC(CO)CC5)nc(OC[C@@]56CCCN5C[C@H](F)C6)nc4c3F)ccc(F)c2s1` (stereo partly drawn) [Compound 485, (1-(7-(2-amino-7-fluoro-benzo[d]thiazol-4-yl)-6-chloro-8-fluoro-2-(((2R,7aS)-2-fluorotetra-hydro-1H-pyrrolizin-7a(5H)-yl)methoxy)quinazolin-4-yl)azepan-4-yl)methanol], the IC50 (in assay [1] (compound nos. 401-703); on wildtype Kras / hSOS1 (compound nos. 401-703)) was below 500 nM each time.

In the case of `Cc1ncc(COc2nc(N3CCCCCC3)c3cc(Cl)c(-c4cccc5sc(N)nc45)c(F)c3n2)cn1` [Compound 505, 4-(4-(azepan-1-yl)-6-chloro-8-fluoro-2-((2-methylpyr-imidin-5-yl)methoxy)quin-azolin-7-yl)benzo[d]thiazol-2-amine], the IC50 (in assay [1] (compound nos. 401-703); on wildtype Kras / hSOS1 (compound nos. 401-703)) was above 500 nM each time.

As for `Nc1nccc2c(-c3c(Cl)cc4c(N5CC6CCC(C5)N6)nc(OCC56CCCN5CCC6)nc4c3F)cccc12` [Compound 541, 5-(4-(3,8-diazabicyclo-[3.2.1]octan-3-yl)-6-chloro-8-fluoro-2-((tetrahydro-1H-pyrrolizin-7a(5H)-yl)meth-oxy)quinazolin-7-yl)iso-quinolin-1-amine], the IC50 (in assay [1] (compound nos. 401-703); at wildtype Kras / hSOS1 (compound nos. 401-703)) was above 500 nM throughout.

Consider `Nc1nc2c(-c3c(Cl)cc4c(N5CCCCCC5)nc(OCC5(CN6CCCC6)CC5)nc4c3F)ccc(F)c2s1` [Compound 677, 4-(4-(azepan-1-yl)-6-chloro-8-fluoro-2-((1-(pyrrolidin-1-ylmethyl)cyclopropyl)meth-oxy)quinazolin-7-yl)-7-fluorobenzo[d]thiazol-2-amine], for which the results for the half-inhibitory concentration (IC50) (in assay [1] (compound nos. 401-703); at wildtype Kras / hSOS1 (compound nos. 401-703)) were below 500 nM and above 500 nM, respectively.

As to `N#Cc1c(N)sc2c(F)ccc(-c3c(Cl)cc4c(N5CC6CCC(C5)N6CC5CC5)nc(OC[C@@]56CCCN5C[C@H](F)C6)nc4c3F)c12` [Compound 500, 2-amino-4-(6-chloro-4-((1R,5S)-8-(cyclopropyl-methyl)-3,8-diazabicyclo-[3.2.1]octan-3-yl)-8-fluoro-2-(((2R,7aS)-2-fluorotetra-hydro-1H-pyrrolizin-7a(5H)-yl)methoxy)quin-azolin-7-yl)-7-fluorobenzo-[b]thiophene-3-carbonitrile], the IC50 (in assay [1] (compound nos. 401-703); on wildtype Kras / hSOS1 (compound nos. 401-703)) was below 500 nM throughout.

Turning to `Nc1nc2c(-c3c(Cl)cc4c(N5CC6CCCC(C5)N6)nc(OC[C@@]56CCCN5C[C@H](F)C6)nc4c3F)ccc(F)c2s1` [Compound 607, 4-(4-(3,9-diazabicyclo-[3.3.1]nonan-3-yl)-6-chloro-8-fluoro-2-(((2R,7aS)-2-fluorotetrahydro-1H-pyrrol-izin-7a(5H)-yl)methoxy)-quinazolin-7-yl)-7-fluoro-benzo[d]thiazol-2-amine], the half-inhibitory concentration (IC50) was below 500 nM in assay [1] (compound nos. 401-703) and above 500 nM on wildtype Kras / hSOS1 (compound nos. 401-703).

As for `CN1CCC[C@H]1COc1nc(N2CCNCC(F)(F)C2)c2cc(Cl)c(-c3cccc4cccc(Cl)c34)c(F)c2n1` [Compound 170, 6-chloro-7-(8-chloronaph-thalen-1-yl)-4-(6,6-difluoro-1,4-diazepan-1-yl)-8-fluoro-2-(((S)-1-methylpyrrolidin-2-yl)methoxy)quinazoline], the IC50 (in assay [1] (setting [2]); at wildtype Kras / hSOS1 (setting [2])) was above 500 nM throughout.
